Values of other authors in patent US7179253B2, “Method of tattoo removal” (3M Innovative Properties Company, priority 2003, dated 2007).

System: tattoo ink pigments in tattooed regions
Settings: guinea pigs; topical 5% cream started within six hours of tattoo application, continued for seven days

## CC(C)Cn1cnc2c(N)nc3ccccc3c21 [imiquimod, 1-(2-methylpropyl)-1H-imidazo[4,5-c]quinolin-4-amine]
  visible tattoo pigment in the tattooed regions at the conclusion of the treatment period: no pigment of any color was visible
